Data on two compounds can be found in patent EP0419308A2, “Use of glutamic acid or gum arabic as anti-complement agent” (Chevance, Léon Georges, priority 1989, dated 1991).

The assay concerns complément. As to the kind of experiment: Anti-complement activity: inhibition of complement in fresh serum (technique of Chevance & Etievant / Rapp & Borsos). The format is biochemical. Conditions: fresh serum diluted 1/40, 37°C, 45 minutes. The source says: L'activité anti-complément des substances visées par l'invention peut être mise en évidence suivant la technique décrite dans l'article de L-G-CHEVANCE et M. ETIEVANT "Etude d'un peptide (sel de magnésium de l' acide N-Acétyl (α-β)- Aspartyl-glutamique) mise en évidence de la protection contre les destructions cellulaires locales provoquées par l'activation in situ du complément" (J. Pharmacol. Paris 1986 n° 4, 676-685), ainsi que dans la parution de J. RAPP et T. BORSOS "Molecular basis of complement action" Appleton Century Crofts publ. 1970.
Après titrage du complément, on incube à 37°C pendant 45 minutes des prélèvements aliquots de 40 µl de sérum frais dilué au 1/40e, mélangés chacun respectivement à 40 µl de solutions aqueuses de concentrations croissantes de chaque substance analysée : acide L-glutamique, glutamate de sodium, gomme arabique et d'un mélange, à concentrations égales de gomme arabique et de glutamate de sodium.

With `N[C@@H](CCC(=O)O)C(=O)O` [Acide glutamique, acide L-glutamique], the “% inhibition” value reads like this: (Concentration 0,05 %) 0,033%; (Concentration 0,5 %) 0,092%; (Concentration 0,25 %) 0,000%; (Concentration 1 %) 0,077%; (Concentration 1,5 %) 0,369%; (Concentration 2 %) 0,661%.

As to `N[C@@H](CCC(=O)O)C(=O)O` [Glutamate de sodium, L-glutamate de sodium], the “% inhibition” value is given as 0,175% (Concentration 0,5 %); 0,112% (Concentration 0,25 %); 0,216% (Concentration 1 %); 0,101% (Concentration 0,062 %); 0,116% (Concentration 0,125 %).
